The values that follow come from US20190246647A1, “COMPOSITIONS AND RELATED METHODS FOR MODULATING ENDOSYMBIONTS” (Flagship Pioneering Innovations V, Inc., priority 2017, published 2019).

In series [1] the test system is its target bacterial strains. The following applies: cited from earlier work.
Series [2] has as its system BCR-4. Briefly: BCR-4 PNA microinjection: BCR-4 expression by RT-qPCR. In kind it is in vivo, Acyrthosiphon pisum. The following applies: after 7 days. The protocol: (§1) Microinjection was performed using NanoJet III Auto-Nanoliter Injector with an in-house pulled borosilicate needle (Drummond Scientific; Cat#3-000-203-G/XL). Aphids were transferred using a paint brush to a tubing system connected to vacuum which held them in place during the injection. The injection site was at the ventral thorax of the aphid. The injection solutions were water (negative control) or 321 ng/μl of BCR-4 PNA in water. The injection volume was 20 nl for adult (4th and 5th instar) aphids at a rate of 2 nl/sec. Each treatment group had approximately the same number of individuals injected from each of the collection plants. After injection, aphids were released into a petri dish onto fava bean leaves that had stems in an Eppendorf tube filled with 1 ml water. Survival and fecundity were monitored over the course of the experiment.
Aphids LSR-1 (which harbor only Buchnera), A. pisum were grown on fava bean plants (Vroma vicia faba from Johnny's Selected Seeds) in a climate-controlled incubator (16 h light/8 h dark photoperiod; 60±5% RH; 25±2° C.). […]
After 7 days of treatment, RNA was extracted from the remaining aphids in each treatment group. […] RNA concentrations were measured using a nanodrop nucleic acid quantification. BCR-4 relative expression was measured by RT-qPCR. […] RT-qPCR data was analyzed using analytic (Thermo Fisher Scientific, QuantStudio Design and Analysis) software.
In general terms: In qPCR the cycle at which signal appears reflects the starting amount.

In series [3] the test system is Aphids (LSR-1 strain, Acyrthosiphon pisum). The series can be described thus: BCR-4 PNA leaf perfusion: aphid survival and development. The following applies: for effect on aphid development / effect on aphid mortality: leaf perfusion, vs water. In kind it is in vivo. The protocol: Aphids (LSR-1 strain, Acyrthosiphon pisum) were grown on fava bean plants (Vroma vicia faba from Johnny's Selected Seeds) in a climate-controlled incubator (16 h light/8 h dark photoperiod; 60±5% RH; 25±2° C.). Prior to being used for aphid rearing, fava bean plants were grown in potting soil at 24° C. with 16 h of light and 8 h of darkness. To limit maternal effects or health differences between plants, 5-10 adults from different plants were distributed among 10 two-week-old plants and allowed to multiply to high density for 5-7 days. For experiments, first and second instar aphids were collected from healthy plants and divided into two different treatment groups: 1) those allowed to feed on leaves perfused with water, and, 2) those allowed to feed on leaves perfused with a BCR-4 PNA solution in water.
For each leaf perfusion, approximately 1 ml of water (negative control) or a 1 uM BCR-4 PNA solution was injected into a fava bean leaf. The stem of the leaf was then placed in a 1.5 ml Eppendorf that was sealed with parafilm. The leaf stem was then placed into a deep petri dish (Fisher Scientific, Cat# FB0875711) and aphids were applied to the leaves of the plant and allowed to feed. Old leaves were replaced with new, freshly injected leaves every 2-3 days throughout the experiment. For each treatment, 60 aphids were placed onto each leaf. Aphids were monitored daily for survival and dead aphids were removed when they were discovered. In addition, the developmental stage (1st, 2nd, 3rd, 4th, and 5th instar) was determined daily throughout the experiment.

The test system of series [4] is Aphids LSR-1, A. pisum. Briefly: BCR-4 PNA microinjection: aphid survival and fecundity. In kind it is in vivo, Acyrthosiphon pisum. How it is done: as §1
Aphids LSR-1 (which harbor only Buchnera), A. pisum were grown on fava bean plants (Vroma vicia faba from Johnny's Selected Seeds) in a climate-controlled incubator (16 h light/8 h dark photoperiod; 60±5% RH; 25±2° C.). Prior to being used for aphid rearing, fava bean plants were grown in potting soil at 24° C. with 16 h of light and 8 h of darkness. To limit maternal effects or health differences between plants, 5-10 adults from different plants were distributed among 10 two-week-old plants, and allowed to multiply to high density for 5-7 days. For experiments, fourth and fifth instar aphids were collected from healthy plants and divided into two treatment groups: 1) water (negative control) or 2) BCR-4 PNA in water.

For series [5], the system named is BCR-4. Briefly: BCR-4 PNA leaf perfusion: BCR-4 expression by RT-qPCR. Format: in vivo, Acyrthosiphon pisum. Particulars: for effect on BCR-4 expression: day 7, vs water. The protocol: After 7 days of treatment, RNA was extracted from the remaining aphids in each treatment group. Briefly, the aphid body surface was sterilized by dipping the aphid into a 6% bleach solution for approximately 5 seconds. Aphids were then rinsed in sterile water and total RNA was extracted from each individual aphid using the RNA extraction kit (Qiagen miRNeasy kit) according to manufacturer's instructions. RNA concentrations were measured using a nanodrop nucleic acid quantification. BCR-4 relative expression was measured by RT-qPCR. The primers used were ApBCR-4F ([…]; SEQ ID NO: 107) and ApBCR-4R ([…]; SEQ ID NO: 108). The internal reference gene primers were for Actin (housekeeping gene). The forward sequence was […]; SEQ ID NO: 109 and the reverse sequence was […]; SEQ ID NO: 110. RT-qPCR was performed using a qPCR amplification ramp of 1.6 degrees C./s and the following conditions: 1) 48° C. for 30 min, 2) 95° C. for 10 minutes, 3) 95° C. for 15 seconds, 4) 60° C. for 1 minute, 5) repeat steps 3-4 40×, 6) 95° C. for 15 seconds, 7) 60° C. for 1 minute, 8) ramp change to 0.15 degrees C./s, 9) 95° C. for 1 second. RT-qPCR data was analyzed using analytic (Thermo Fisher Scientific, QuantStudio Design and Analysis) software.
At 7 post-treatment, RNA was extracted from live aphids and RT-pPCR was done as described above (see Microinjection Delivery Experimental Design) to quantify expression of BCR-4.

Series [6] deals with Buchnera. Briefly: BCR-4 PNA leaf perfusion: Buchnera/aphid copies by qPCR. Format: in vivo. Particulars: for effect on Buchnera titers: vs water. How it is done:
After 5 and 6 days of treatment, DNA was extracted from dead aphids from each treatment group. Briefly, the aphid body surface was sterilized by dipping the aphid into a 6% bleach solution for approximately 5 seconds. Aphids were then rinsed in sterile water and DNA was extracted from each individual aphid using a DNA extraction kit (Qiagen, DNeasy kit) according to manufacturer's instructions. DNA concentration was measured using a nanodrop nucleic acid quantification, and Buchnera and aphid DNA copy numbers were measured by qPCR. The primers used for Buchnera were Buch_groES_18F ([…]; SEQ ID NO: 101) and Buch_groES_98R ([…]; SEQ ID NO: 102) (Chong and Moran, 2016 PNAS). The primers used for aphid were ApEF1a 107F ([…]; SEQ ID NO: 103) and ApEF1a 246R ([…]; SEQ ID NO: 104) (Chong and Moran, 2016 PNAS). qPCR was performed using a qPCR amplification ramp of 1.6 degrees C./s and the following conditions: 1) 95° C. for 10 minutes, 2) 95° C. for 15 seconds, 3) 55° C. for 30 seconds, 4) repeat steps 2-3 40×, 5) 95° C. for 15 seconds, 6) 55° C. for 1 minute, 7) ramp change to 0.15 degrees C./s, 8) 95° C. for 1 second. qPCR data was analyzed using analytic (Thermo Fisher Scientific, QuantStudio Design and Analysis) software.

The subject of series [7] is Rhopalosiphum maidis. The series can be described thus: Bcr1 dsRNA in artificial diet: aphid survival. The following applies: 0.5 to 5 μg/ml in artificial diet; paper example. In kind it is in vivo. How it is done: dsRNA solutions are formulated with 0 (negative control), 0.5, 1, or 5 μg/ml of Bcr1 dsRNA from Example 2 in 10 mL of TE buffer with 0.5% sucrose and essential amino acids.
(§2) To prepare for the treatment, aphids are grown in a lab environment and medium. In a climate-controlled room (16 h light photoperiod; 60±5% RH; 20±2° C.), fava bean plants are grown in a mixture of vermiculite and perlite and are infested with aphids. To limit maternal effects or health differences between plants, 5-10 adults from different plants are distributed among 10 two-week-old plants, and allowed to multiply to high density for 5-7 days. For experiments, second and third instar aphids are collected from healthy plants and divided into treatments so that each treatment receives approximately the same number of individuals from each of the collection plants.
(§3) Wells of a 96-well plate are filled with 200 μl of artificial aphid diet (Febvay et al., Canadian Journal of Zoology 66(11):2449-2453, 1988) and the plate is covered with parafilm to make a feeding sachet. […]

Series [8] concerns Myzus persicae. Briefly: Bcr1 dsRNA in artificial diet: aphid survival. Format: in vivo. Particulars: 0.5 to 5 μg/ml in artificial diet; paper example. The protocol:
dsRNA solutions are formulated with 0 (negative control), 0.5, 1, or 5 μg/mL of Bcr1 dsRNA from Example 7 in 10 mL of TE buffer with 0.5% sucrose and essential amino acids.
as §2, with “(16 hr” for “(16 h”, “C.),” for “C.), fava bean”
as §3

The mark [9] stands for this setting: vs water, listed as PNA to BCR-4.

“Also recorded” adds a separate entry of the source.

On to nisin, for which the “concentration showing antimicrobial activity” value in series [1] is “single-digit nanomolar concentration”.
Take “YGRKKRRQRRR-CGTACAATAATCTCATGG (PNA against BCR-4; UniProt P04608 47-57, looked up, fragment) [BCR-4 PNA, peptide nucleic acid (PNA) to BCR-4 fused to a cell penetrating peptide (Tat)]”: the “expression of BCR-4, water-injected fold higher than BCR-4 PNA-injected” value in series [2] (microinjection 20 nl of 321 ng/μl, 4th and 5th instar) was “approximately 2 fold”. Also, the “effect on BCR-4 expression” value in series [2] (microinjection, vs water) is reported as “knockdown of BCR-4; also recorded: reduced BCR-4 expression”; in series [5] it was “reduction of BCR-4 expression”; in series [5] (listed as PNA to BCR-4), “knocked down BCR-4 expression”. Further, the “aphids in the 3rd instar stage” value in series [3] (leaf perfusion 1 uM, day 2 post-treatment, first and second instar aphids) came to 8%. In series [3] (leaf perfusion 1 uM, day 7), this molecule gave an aphids alive of 30%. Also, the “effect on aphid development” value is “delayed aphid development” in series [3] and “slowed aphid development” in series [3] (listed as PNA to BCR-4). Besides, the entries for the “effect on aphid mortality” value in series [3] and in series [3] (listed as PNA to BCR-4) were “increased aphid death” and “increased aphid mortality”, respectively. In series [4] (at 3 and 7 days post-treatment), the “offspring produced per adult” value was determined as 4 offspring/adult. Moreover, the figures for the “effect on aphid fecundity” value in series [4] (vs water) and in series [4] (setting [9]) were “slight decrease in aphid fecundity” and “decreased fecundity”, respectively. In addition, in series [4] (setting [9]), the “effect on aphid survival” value is given as “slight decrease in survival; also recorded: decrease in insect survival”. Moreover, the “median transcript levels of BCR-4, fold lower than water” value in series [5] (living aphids after 7 days) is given as “approximately 3 fold”. Besides, the “mean ratio Buchnera/aphid copies” value in series [6] (dead aphids collected 5 and 6 days post-treatment) is “approximately 57”. For the same molecule, the “effect on Buchnera titers” value is recorded as “increased Buchnera titers” in series [6] and “misbalance in Buchnera titers” in series [6] (listed as PNA to BCR-4).

B1: Bcr1 dsRNA: dsRNA hairpin targeting Bcr1 gene (ACYPI32128), SEQ ID NO: 93 (nucleic acid, listed as Acyrthosiphon pisum)
chain: AUGAAACUGCUGCAUGGCUUUCUGAUUAUUAUGCUGACCAUGCAUCUGAGCAUUCAGUAUGCGUAUGGCGGCCCGUUUCUGACCAAAUAUCUGUGCGAUCGCGUGUGCCAUAAACUGUGCGGCGAUGAAUUUGUGUGCAGCUGCAUUCAGUAUAAAAGCCUGAAAGGCCUGUGGUUUCCGCAUUGCCCGACCGGCAAAGCGAGCGUGGUGCUGCAUAACUUUCUGACCAGCCCGUUUUUUUUUUCGGGCUGGUCAGAAAGUUAUGCAGCACCACGCUCGCUUUGCCGGUCGGGCAAUGCGGAAACCACAGGCCUUUCAGGCUUUUAUACUGAAUGCAGCUGCACACAAAUUCAUCGCCGCACAGUUUAUGGCACACGCGAUCGCACAGAUAUUUGGUCAGAAACGGGCCGCCAUACGCAUACUGAAUGCUCAGAUGCAUGGUCAGCAUAAUAAUCAGAAAGCCAUGCAGCAGUUUCAU
For the molecule B1, the “survival rate of aphids vs control” value in series [7] and in series [8] was “decreased” in each case.
